According to ChEMBL document CHEMBL1667842, “Benzyl benzoates: New phlorizin analogs as mushroom tyrosinase inhibitors” (Bioorg Med Chem, 2011):
Activity calls are given as the source filed them. The rule behind the calls is not given here.

Experiments:
Tyrosinase [1] = target: T1, Tyrosinase (Agaricus bisporus, UniProt O42713)
T1 sequence (O42713 whole entry): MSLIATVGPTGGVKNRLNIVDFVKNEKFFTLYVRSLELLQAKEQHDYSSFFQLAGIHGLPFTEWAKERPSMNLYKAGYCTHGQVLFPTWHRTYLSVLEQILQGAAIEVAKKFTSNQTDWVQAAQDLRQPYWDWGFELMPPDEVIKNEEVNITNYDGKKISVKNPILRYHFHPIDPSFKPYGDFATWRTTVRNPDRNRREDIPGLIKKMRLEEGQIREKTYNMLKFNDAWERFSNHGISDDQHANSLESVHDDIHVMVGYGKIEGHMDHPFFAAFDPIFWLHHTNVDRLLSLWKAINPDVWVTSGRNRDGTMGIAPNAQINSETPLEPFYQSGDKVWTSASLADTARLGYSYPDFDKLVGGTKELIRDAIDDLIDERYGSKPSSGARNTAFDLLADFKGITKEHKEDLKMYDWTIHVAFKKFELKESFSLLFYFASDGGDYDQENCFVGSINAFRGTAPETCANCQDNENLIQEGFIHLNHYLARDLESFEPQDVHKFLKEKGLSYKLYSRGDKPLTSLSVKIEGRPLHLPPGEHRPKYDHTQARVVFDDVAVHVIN
Description: Inhibition of mushroom tyrosinase preincubated for 20 mins

Tyrosinase [2] = target: T1, Tyrosinase; assay: (§1) Competitive inhibition of mushroom tyrosinase by Lineweaver-Burk plot analysis
[3] = target: T2, Tyrosinase (Agaricus bisporus) (UniProt O42713); assay: as §1
T2 sequence (whole entry): T1 sequence (O42713 whole entry)

Structure (SMILES) | IC50 (Tyrosinase [1]) | Ki (Tyrosinase [2]) | Activity [3]
O=C(OCc1ccccc1O)c1cc(O)cc(O)c1 | 19.9 µM |  | 
O=C(OCc1ccc(O)cc1)c1cc(O)c(O)c(O)c1 [4-HYDROXYBENZYL GALLATE] | 25.7 µM |  | 
O=C(OCc1ccc(O)cc1)c1ccc(O)cc1O | 4.69 µM | 1.11 µM | 
O=C(OCc1cccc(O)c1)c1cc(O)ccc1O [3-HYDROXYBENZYL 2,5-DIHYDROXYBENZOATE] | 24.4 µM |  | 
O=C(OCc1ccccc1O)c1cc(O)ccc1O | > 100 µM |  | 
O=C(OCc1ccc(O)cc1)c1c(O)cc(O)cc1O [4-HYDROXYBENZYL 2,4,6-DIHYDROXYBENZOATE] | 8 µM |  | Active
O=C(OCc1ccc(O)cc1)c1cc(O)cc(O)c1 [4-HYDROXYBENZYL 3,5-DIHYDROXYBENZOATE] | 5.84 µM |  | Active
O=C(OCc1ccccc1O)c1c(O)cc(O)cc1O | 19.9 µM |  | 
O=C(OCc1ccccc1O)c1cc(O)c(O)c(O)c1 | > 100 µM |  | 
O=C(OCc1ccccc1O)c1ccc(O)cc1O | 66.2 µM |  | 
O=C(OCc1cccc(O)c1)c1cc(O)c(O)c(O)c1 | 11.5 µM |  | 
O=C(OCc1cccc(O)c1)c1cc(O)cc(O)c1 | 6.11 µM |  | Active
O=C(OCc1cccc(O)c1)c1ccc(O)cc1O | 6.23 µM |  | Active
O=C(OCc1ccc(O)cc1)c1cc(O)ccc1O [4-HYDROXYBENZYL 2,5-DIHYDROXYBENZOATE] | 12.3 µM |  | 
